# Structures can show the parent of a compound that is named as a salt.
# Molecular target: T1, human CYP1A2 (Homo sapiens, UniProt P05177)
# T1 sequence (P05177 1-516): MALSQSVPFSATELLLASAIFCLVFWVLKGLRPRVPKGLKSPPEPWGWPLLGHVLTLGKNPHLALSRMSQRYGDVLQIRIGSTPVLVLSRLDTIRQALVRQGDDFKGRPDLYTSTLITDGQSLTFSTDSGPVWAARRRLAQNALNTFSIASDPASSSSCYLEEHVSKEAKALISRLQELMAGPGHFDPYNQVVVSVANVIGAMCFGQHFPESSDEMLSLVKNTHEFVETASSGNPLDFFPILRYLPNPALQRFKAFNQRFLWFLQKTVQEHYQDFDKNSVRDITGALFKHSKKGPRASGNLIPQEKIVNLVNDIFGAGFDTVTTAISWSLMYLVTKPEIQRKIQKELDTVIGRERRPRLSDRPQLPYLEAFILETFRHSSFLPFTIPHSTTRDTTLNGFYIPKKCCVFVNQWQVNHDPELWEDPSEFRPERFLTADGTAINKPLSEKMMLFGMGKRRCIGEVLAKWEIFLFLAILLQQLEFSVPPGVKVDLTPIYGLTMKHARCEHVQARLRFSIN
# Test: biochemical
# Conditions: not given
row,SMILES,IC50 [µM]
1,CCCCCOc1ccccc1/C(=C\SC)n1ccnc1 [Neticonazole],4.51 ± 2.88
2,CC(C)OC(=O)c1cc(C(=O)OC(C)C)cc([N+](=O)[O-])c1 [Nitrothal-isopropyl],2.34
3,C/C(=C(/OCCOc1ccc(Cl)cc1)c1ccc(Cl)cc1Cl)n1ccnc1 [Omoconazole],2.5 ± 0.24

# Same assay, conditions: CYP1A2 AC50 (half-maximal activity concentration)
row,SMILES,AC50 [µM]
1,CC1CCC(C(C)C)C(OC(=O)c2ccccc2N)C1 (stereo not shown) [Menthyl anthranilate],16.6
2,CCCCCC(C=O)=Cc1ccccc1 [Pentylcinnamaldehyde],29.1

# Same assay, conditions: CYP1A2 IC50 (half-maximal inhibitory concentration)
row,SMILES,IC50 [µM]
1,COc1c2occc2c(OC)c2c(=O)cc(C)oc12 [Khellin],0.15
2,CCOC(=O)C1=C(C)NC(C)=C(C(=O)OCC)C1c1ccccc1/C=C/C(=O)OC(C)(C)C [Lacidipine],23.9
3,COc1ccc(C(c2ccc(OC)cc2)C(Cl)(Cl)Cl)cc1 [Methoxychlor],17.8
4,COP(=S)(OC)SCN1C(=O)c2ccccc2C1=O [Phosmet],6.92
5,CNC(=O)Oc1ccc2c(c1)[C@]1(C)CCN(C)[C@@H]1N2C [Physostigmine],55.4
6,CCCCOCCOCCOCc1cc2c(cc1CCC)OCO2 [Piperonyl butoxide],1.03
7,CC(=O)SCC(Cc1ccccc1)C(=O)NCC(=O)OCc1ccccc1 (stereo not shown) [Racecadotril],15.1
8,C[C@]12Cc3c[nH]nc3C[C@@H]1CC[C@@H]1[C@@H]2CC[C@@]2(C)[C@H]1CC[C@]2(C)O [Stanozolol],21.5
9,CCCc1c(OCCCCc2nnn[nH]2)ccc(C(C)=O)c1O [Tomelukast],54.3
10,CC(C)(C)C(O)C(Oc1ccc(Cl)cc1)n1cncn1 (stereo not shown) [Triadimenol],33.6
11,O[C@@H](COc1cccc2ncccc12)CN1CCN([C@@H]2c3ccccc3[C@@H]3[C@H](c4ccccc42)C3(F)F)CC1 [Zosuquidar trihydrochloride],15.5

# Molecular target: human CYP2C9 (Homo sapiens, UniProt P11712)
# Sequence (P11712 whole entry): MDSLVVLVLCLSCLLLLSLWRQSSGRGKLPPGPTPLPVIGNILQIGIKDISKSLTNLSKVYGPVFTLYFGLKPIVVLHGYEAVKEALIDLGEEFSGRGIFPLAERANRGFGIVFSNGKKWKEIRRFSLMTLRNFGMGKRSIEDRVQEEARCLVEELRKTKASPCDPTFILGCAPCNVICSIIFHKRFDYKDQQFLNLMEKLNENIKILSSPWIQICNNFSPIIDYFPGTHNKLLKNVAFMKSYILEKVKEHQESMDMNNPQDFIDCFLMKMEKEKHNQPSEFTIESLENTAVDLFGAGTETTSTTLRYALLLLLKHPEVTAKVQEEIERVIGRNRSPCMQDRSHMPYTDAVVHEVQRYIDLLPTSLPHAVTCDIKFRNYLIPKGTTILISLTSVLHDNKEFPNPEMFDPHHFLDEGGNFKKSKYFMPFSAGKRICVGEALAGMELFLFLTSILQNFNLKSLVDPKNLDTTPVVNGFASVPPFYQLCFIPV
# Test: biochemical
# Conditions: not given
row,SMILES,IC50 [µM]
1,CCCCCOc1ccccc1/C(=C\SC)n1ccnc1 [Neticonazole],7.76 ± 3.93
2,CC(C)OC(=O)c1cc(C(=O)OC(C)C)cc([N+](=O)[O-])c1 [Nitrothal-isopropyl],1.06
3,C/C(=C(/OCCOc1ccc(Cl)cc1)c1ccc(Cl)cc1Cl)n1ccnc1 [Omoconazole],0.87 ± 0.1
4,COP(=S)(OC)SCN1C(=O)c2ccccc2C1=O [Phosmet],2.04

# Same assay, conditions: CYP2C9 AC50 (half-maximal activity concentration)
row,SMILES,AC50 [µM]
1,CC1CCC(C(C)C)C(OC(=O)c2ccccc2N)C1 (stereo not shown) [Menthyl anthranilate],4.33
2,CCCCCC(C=O)=Cc1ccccc1 [Pentylcinnamaldehyde],37

# Same assay, conditions: CYP2C9 IC50 (half-maximal inhibitory concentration)
row,SMILES,IC50 [µM]
1,COc1c2occc2c(OC)c2c(=O)cc(C)oc12 [Khellin],14.4
2,CCOC(=O)C1=C(C)NC(C)=C(C(=O)OCC)C1c1ccccc1/C=C/C(=O)OC(C)(C)C [Lacidipine],1.29
3,COc1ccc(C(c2ccc(OC)cc2)C(Cl)(Cl)Cl)cc1 [Methoxychlor],2.45
4,CNC(=O)Oc1ccc2c(c1)[C@]1(C)CCN(C)[C@@H]1N2C [Physostigmine],80
5,CCCCOCCOCCOCc1cc2c(cc1CCC)OCO2 [Piperonyl butoxide],0.65
6,CC(=O)SCC(Cc1ccccc1)C(=O)NCC(=O)OCc1ccccc1 (stereo not shown) [Racecadotril],3.34
7,C[C@]12Cc3c[nH]nc3C[C@@H]1CC[C@@H]1[C@@H]2CC[C@@]2(C)[C@H]1CC[C@]2(C)O [Stanozolol],0.94
8,CCCc1c(OCCCCc2nnn[nH]2)ccc(C(C)=O)c1O [Tomelukast],0.15
9,CC(C)(C)C(O)C(Oc1ccc(Cl)cc1)n1cncn1 (stereo not shown) [Triadimenol],34.4
10,O[C@@H](COc1cccc2ncccc12)CN1CCN([C@@H]2c3ccccc3[C@@H]3[C@H](c4ccccc42)C3(F)F)CC1 [Zosuquidar trihydrochloride],9.14

# Molecular target: human CYP2C19 (Homo sapiens, UniProt P33261)
# Sequence (P33261 whole entry): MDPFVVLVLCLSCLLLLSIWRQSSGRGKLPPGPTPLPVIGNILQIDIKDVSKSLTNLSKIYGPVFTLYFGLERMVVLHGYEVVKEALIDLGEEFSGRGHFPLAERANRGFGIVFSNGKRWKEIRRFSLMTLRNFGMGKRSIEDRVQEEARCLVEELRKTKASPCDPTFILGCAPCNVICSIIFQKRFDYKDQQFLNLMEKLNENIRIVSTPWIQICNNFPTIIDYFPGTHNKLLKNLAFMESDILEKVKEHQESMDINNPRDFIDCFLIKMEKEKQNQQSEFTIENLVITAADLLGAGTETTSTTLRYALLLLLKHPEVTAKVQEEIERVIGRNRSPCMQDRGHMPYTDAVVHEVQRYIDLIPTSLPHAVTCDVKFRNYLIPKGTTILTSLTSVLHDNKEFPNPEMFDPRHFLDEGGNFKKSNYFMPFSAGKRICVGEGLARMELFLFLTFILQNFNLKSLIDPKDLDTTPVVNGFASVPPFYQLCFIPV
# Test: biochemical
# Conditions: not given
row,SMILES,IC50 [µM]
1,CCCCCOc1ccccc1/C(=C\SC)n1ccnc1 [Neticonazole],3.49 ± 2.23
2,CC(C)OC(=O)c1cc(C(=O)OC(C)C)cc([N+](=O)[O-])c1 [Nitrothal-isopropyl],0.52
3,C/C(=C(/OCCOc1ccc(Cl)cc1)c1ccc(Cl)cc1Cl)n1ccnc1 [Omoconazole],0.92 ± 0.4

# Same assay, conditions: CYP2C19 AC50 (half-maximal activity concentration)
row,SMILES,AC50 [µM]
1,CC1CCC(C(C)C)C(OC(=O)c2ccccc2N)C1 (stereo not shown) [Menthyl anthranilate],4.62
2,CCCCCC(C=O)=Cc1ccccc1 [Pentylcinnamaldehyde],30.2

# Same assay, conditions: CYP2C19 IC50 (half-maximal inhibitory concentration)
row,SMILES,IC50 [µM]
1,COc1c2occc2c(OC)c2c(=O)cc(C)oc12 [Khellin],6.65
2,CCOC(=O)C1=C(C)NC(C)=C(C(=O)OCC)C1c1ccccc1/C=C/C(=O)OC(C)(C)C [Lacidipine],6.72
3,COc1ccc(C(c2ccc(OC)cc2)C(Cl)(Cl)Cl)cc1 [Methoxychlor],0.86
4,COP(=S)(OC)SCN1C(=O)c2ccccc2C1=O [Phosmet],0.47
5,CNC(=O)Oc1ccc2c(c1)[C@]1(C)CCN(C)[C@@H]1N2C [Physostigmine],45.4
6,CCCCOCCOCCOCc1cc2c(cc1CCC)OCO2 [Piperonyl butoxide],0.5
7,CC(=O)SCC(Cc1ccccc1)C(=O)NCC(=O)OCc1ccccc1 (stereo not shown) [Racecadotril],0.64
8,C[C@]12Cc3c[nH]nc3C[C@@H]1CC[C@@H]1[C@@H]2CC[C@@]2(C)[C@H]1CC[C@]2(C)O [Stanozolol],0.55
9,CCCc1c(OCCCCc2nnn[nH]2)ccc(C(C)=O)c1O [Tomelukast],0.15
10,CC(C)(C)C(O)C(Oc1ccc(Cl)cc1)n1cncn1 (stereo not shown) [Triadimenol],1.38
11,O[C@@H](COc1cccc2ncccc12)CN1CCN([C@@H]2c3ccccc3[C@@H]3[C@H](c4ccccc42)C3(F)F)CC1 [Zosuquidar trihydrochloride],20.4

# Molecular target: human CYP2D6 (Homo sapiens, UniProt P10635)
# Sequence (P10635 whole entry): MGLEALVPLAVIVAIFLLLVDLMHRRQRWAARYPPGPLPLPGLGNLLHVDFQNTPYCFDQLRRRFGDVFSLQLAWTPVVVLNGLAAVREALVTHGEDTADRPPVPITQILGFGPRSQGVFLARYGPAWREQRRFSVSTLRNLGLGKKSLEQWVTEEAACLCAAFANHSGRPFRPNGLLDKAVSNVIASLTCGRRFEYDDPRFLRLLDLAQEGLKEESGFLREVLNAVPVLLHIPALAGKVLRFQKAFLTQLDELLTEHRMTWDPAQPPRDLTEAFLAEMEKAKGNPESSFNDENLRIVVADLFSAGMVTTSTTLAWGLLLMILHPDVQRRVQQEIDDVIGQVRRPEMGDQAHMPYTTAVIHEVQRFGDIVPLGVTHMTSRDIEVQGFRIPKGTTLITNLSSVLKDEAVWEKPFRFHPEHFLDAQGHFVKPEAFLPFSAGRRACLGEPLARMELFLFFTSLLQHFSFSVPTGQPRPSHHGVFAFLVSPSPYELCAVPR
# Test: biochemical
# Conditions: not given
row,SMILES,IC50 [µM]
1,CCCCCOc1ccccc1/C(=C\SC)n1ccnc1 [Neticonazole],7.69 ± 5.3
2,CC(C)OC(=O)c1cc(C(=O)OC(C)C)cc([N+](=O)[O-])c1 [Nitrothal-isopropyl],6.51
3,C/C(=C(/OCCOc1ccc(Cl)cc1)c1ccc(Cl)cc1Cl)n1ccnc1 [Omoconazole],1.67 ± 0.11
4,COP(=S)(OC)SCN1C(=O)c2ccccc2C1=O [Phosmet],24.6

# Same assay, conditions: CYP2D6 AC50 (half-maximal activity concentration)
row,SMILES,AC50 [µM]
1,CC1CCC(C(C)C)C(OC(=O)c2ccccc2N)C1 (stereo not shown) [Menthyl anthranilate],57.9
2,CCCCCC(C=O)=Cc1ccccc1 [Pentylcinnamaldehyde],49.4

# Same assay, conditions: CYP2D6 IC50 (half-maximal inhibitory concentration)
row,SMILES,IC50 [µM]
1,COc1c2occc2c(OC)c2c(=O)cc(C)oc12 [Khellin],14.5
2,CCOC(=O)C1=C(C)NC(C)=C(C(=O)OCC)C1c1ccccc1/C=C/C(=O)OC(C)(C)C [Lacidipine],15.7
3,COc1ccc(C(c2ccc(OC)cc2)C(Cl)(Cl)Cl)cc1 [Methoxychlor],35.5
4,CNC(=O)Oc1ccc2c(c1)[C@]1(C)CCN(C)[C@@H]1N2C [Physostigmine],0.59
5,CCCCOCCOCCOCc1cc2c(cc1CCC)OCO2 [Piperonyl butoxide],6.78
6,CC(=O)SCC(Cc1ccccc1)C(=O)NCC(=O)OCc1ccccc1 (stereo not shown) [Racecadotril],1.24
7,C[C@]12Cc3c[nH]nc3C[C@@H]1CC[C@@H]1[C@@H]2CC[C@@]2(C)[C@H]1CC[C@]2(C)O [Stanozolol],10.8
8,CCCc1c(OCCCCc2nnn[nH]2)ccc(C(C)=O)c1O [Tomelukast],31.7
9,CC(C)(C)C(O)C(Oc1ccc(Cl)cc1)n1cncn1 (stereo not shown) [Triadimenol],65.1
10,O[C@@H](COc1cccc2ncccc12)CN1CCN([C@@H]2c3ccccc3[C@@H]3[C@H](c4ccccc42)C3(F)F)CC1 [Zosuquidar trihydrochloride],15.2
